Patent publication US4772590A, “Oily composition of aclarubicin or hydrochloride thereof” (priority 1983, dated 1988)
Converted amounts (≈) assume the structure as drawn. Counter-ions that a name gives are not always drawn. Like-named read-outs stand apart in the source and are kept apart here. One block for each molecule: values may come before it.

Tests used:
[1] = solubility of aclarubicin or its hydrochloride in solvents and in fats and oils; type: physicochemical; details: for solubility: organic solvent or mixture
[2] = solubilization of aclarubicin or aclarubicin hydro-chloride in fats and oils by acids; type: physicochemical

SMILES: CC[C@@]1(O)C[C@H](O[C@H]2C[C@H](N(C)C)[C@H](O[C@H]3C[C@H](O)[C@H](O[C@H]4CCC(=O)[C@H](C)O4)[C@H](C)O3)[C@H](C)O2)c2c(cc3c(c2O)C(=O)c2c(O)cccc2C3=O)[C@H]1C(=O)OC [Aclarubicin hydrochloride]
solubility in acetone ([1]; acetone): freely soluble
solubility in ether ([1]; ether): practically insoluble
solubility in fats and oils ([1]; fats and oils): very sparingly soluble
solubility in methanol ([1]; methanol): freely soluble
solubility in n-hexane ([1]; n-hexane): practically insoluble
solubility ([1]; olive oil, olive oil, aclarubicin hydrochloride, read-out: solubility in olive oil): ~4 µg/mL
solubility ([1]; sesame oil, sesame oil, aclarubicin hydrochloride, read-out: solubility in sesame oil): 16 µg/mL
solubility in water ([1]; water): freely soluble

SMILES: CC[C@@]1(O)C[C@H](O[C@H]2C[C@H](N(C)C)[C@H](O[C@H]3C[C@H](O)[C@H](O[C@H]4CCC(=O)[C@H](C)O4)[C@H](C)O3)[C@H](C)O2)c2c(cc3c(c2O)C(=O)c2c(O)cccc2C3=O)[C@H]1C(=O)OC [Aclarubicin, methyl(1R, 2R, 4S)-2-ethyl-1,2,3,4,6,11-hexahydro-2,5,7-trihydroxy-6,11-dioxo-4-{[2,3,6-trideoxy-4-O-[2,6-dideoxy-4-O-((2R,6S)-tetrahydro-6-methyl-5-oxo-2H-pyran-2-yl)-α-1-lyxohexopyranocyl]-3-dimethylamino-α-1-lyxo-hexopyranocyl]oxy}-1-naphthacene carboxylate]
solubility ([1]; olive oil, olive oil, aclarubicin, read-out: solubility in olive oil): 10000 µg/mL (≈ 12.3 mM)
solubility ([1]; sesame oil, sesame oil, aclarubicin, read-out: solubility in sesame oil): 10000 µg/mL (≈ 12.3 mM)

dissolution of polycarboxylic acid in fats and oils [2]: not dissolved in fats and oils
SMILES: O=C(O)/C=C/C(=O)O [fumaric acid]
